US6436630B1, “Method for testing the toxicity of chemical substances using gastropods” (priority 1998, dated 2002)
Where a name gives a salt, the structure may show the parent alone.

Key:
[1] = test system: foot mucosa of slugs of species Arion; assay: Slug mucosal toxicity test, Example 2 (15 min daily treatment, four days); settings: in vivo; for % MP, mucus production as % of the body weight at the start of the day before the treatment / ALP released into PBS / Protein released into PBS: Arion (slug)
Procedure: As test substance a β-blocking agent propranolo HCl (1% w/v) was used. Benzalkonium chloride (1% w/v) and Propranolol (1% w/v) were prepared in PBS (pH 7.4). The slugs were daily incubated during 15 min with the test solution during four days. After the incubation period the slugs were placed on 500 μL PBS in a petri dish. The PBS was sampled every hour and refreshed with 500 μL PBS for 3 hours after the treatment.
The enzymes (LDH, ALP) and the total protein released into the PBS were determined. The change in body weight and the mucus production caused by the treatment were examined.

[2] = test system: foot mucosa of slugs of the species Arion; assay: Slug mucosal toxicity test of local anaesthetics, Example 4; format: in vivo
Procedure: The following local anaesthetics were used as test substance: procaine HCl, lidocaine HCl, prilocaine HCl, tetracaine HCl and bupivacaine HCl. All test substances were prepared in PBS (pH 7.4) at 1% w/v concentrations. The slugs were daily incubate during 15 min with the test solution during five days. After the incubation period the slugs were placed on 1 ml PBS in a petri dish. The PBS was sampled every hour and refreshed with 1 ml PBS for 3 hours after the treatment.
The total protein released into the PBS was determined.

[3] = test system: foot mucosa of slugs (species Arion); assay: Slug mucosal toxicity test, Example 1 (15 min daily treatment, five days); format: in vivo; settings: for % WL, reduction in weight (weight loss) caused by the 15 minute treatment as % of initial body weight of the day / % MP, mucus production as % of the body weight at the start of the day before the treatment: 1% w/v in PBS; for % MP, mucus production as % of the body weight at the start of the day before the treatment / ALP released into PBS / LDH released into PBS / Protein released into PBS: 15 min; for ALP released into PBS / LDH released into PBS / Protein released into PBS: total mean of 7 samples/day per slug
Source text: Initially, the slugs are kept on a culture under controlled conditions of temperature and humidity until they have reached a stable body weight. The purpose of achieving a stable body weight is to improve the reproducibility of the results, particularly as the release of substances from the slugs may conveniently be measured in terms of the body weight thereof. The slugs are then isolated from the culture and placed in a vented plastic box lined with moist paper towel and placed at 95% relative humidity at 20° C. seven days before the start of an experiment. The slugs were not bred in any particular way, i.e. they were wild slugs. It is anticipated that even more accurate and reproducible results can be obtained by selective breeding of the slugs, although as shown by the test results this is not a necessary requirement of the present invention to obtain accurate and useful data.
The test procedure is simple and rapid. The chemical substance to be tested is applied directly to the mucosal membrane of a slug, e.g. to the foot, by placing the slug individually in a petri dish containing the test substance. Slugs treated with phosphate buffered saline are used as a negative control. As a positive control slugs treated with a known toxic substance, benzalkonium chloride, were used.
Because the mucosal epithelium of interest is located at the outside of the slug the effect of substances can be easily observed. […] This can also be simply measured by weighing the petri dish before and after the treatment of the slugs with the chemical substance (with the slugs removed in each case). Additionally an indirect response to epithelial damage caused by a chemical substance may be determined by the reduction of the body weight of the slugs due to the leakage of haemolymphatic fluids through the damaged foot surface.
After the treatment the slugs are transferred individually to a fresh petri dish containing phosphate buffered saline. After a suitable exposure time, e.g. 1 hour the phosphate buffered saline is collected and analysed for the presence of proteins and/or enzymes, e.g. lactate dehydrogenase and/or alkaline phosphatase, or other marker substances released from the foot or epithelium of the slug, for example membrane associated components such as phospholipids or cholesterol. This procedure can be repeated after periods of several hours in order to determine the reversibility of the cell damage caused by the test chemical substance. The concentration or amount of the chemical substance to be tested can be changed and the influence of the concentration can be easily examined. The exposure time can also be changed if required. The slugs can be treated during several successive days in order to investigate the subchronical effect of substances on the foot mucosa.
Seven days before the start of the experiment the slugs were isolated in a plastic box lined with moist paper towel and placed at 95% relative humidity at 20° C. As test substances didecanyol-L-α-phosphatidylcholine (DDPC) and sodium deoxycholate (SDC) were selected. Benzalkonium chloride (1% w/v), SDC (1% w/v) and DDPC (1%, w/v) were prepared in phosphate buffered saline (PBS, pH 7.4). […] During the test the slugs are preferably kept in a generally calm and normal state and are not subjected to mechanical vibrations or mechanical or electrical disturbances which may affect mucus production.
The enzymes (lactate dehydrogenase (LDH) and alkaline phosphatase (ALP)) and total protein released into the PBS were determined. The slugs were weighed before and after the incubation period to determine the body weight changes. The mucus production was measured by weighing the petri dishes before and after the treatment with a test substance. The results are shown in Table 1 and shown graphically in FIGS. 1 to 5.

[4] = 1% w/v, 15 min daily, five days

## CC(C)NCC(O)COc1cccc2ccccc12 (stereo not drawn) [Propr, propranolol HCl]
[1]; 1 day
  % MP, mucus production as % of the body weight at the start of the day before the treatment: 0.77%
  ALP released into PBS: 0.35 U/L
  Protein released into PBS: 4.89 μg/30 μL
[1]; 2 day
  % MP, mucus production as % of the body weight at the start of the day before the treatment: 3.74%
  ALP released into PBS: 2.19 U/L
  Protein released into PBS: 31.61 μg/30 μL
[1]; 3 day
  % MP, mucus production as % of the body weight at the start of the day before the treatment: 3.11%
  ALP released into PBS: 17.50 U/L
  Protein released into PBS: 31.36 μg/30 μL
[1]; 4 day
  % MP, mucus production as % of the body weight at the start of the day before the treatment: 2.80%
  ALP released into PBS: 18.43 U/L
  Protein released into PBS: 20.88 μg/30 μL
[1]
  colour of the mucus excreted by the slugs: orange coloured
  irritation (in words): considerable irritation
  membrane damage (in words): severe membrane damage
  survival of the slugs: all the slugs were dead

## CCCCNc1ccc(C(=O)OCCN(C)C)cc1 [Tetracaine HCl, tetracaine HCl]
[2]; Arion (slug), in vivo, 1 day
  % MP, mucus production as % of the body weight at the start of the day before the treatment: 3.45%
  Total protein release into PBS: 413 µg/mL
[2]; Arion (slug), in vivo, 2 day
  % MP, mucus production as % of the body weight at the start of the day before the treatment: 2.48%
  Total protein release into PBS: 130 µg/mL
[2]; Arion (slug), in vivo, 3 day
  % MP, mucus production as % of the body weight at the start of the day before the treatment: 1.15%
  Total protein release into PBS: 120 µg/mL
[2]; Arion (slug), in vivo, 4 day
  % MP, mucus production as % of the body weight at the start of the day before the treatment: 1.29%
  Total protein release into PBS: 128 µg/mL
[2]; Arion (slug), in vivo, 5 day
  % MP, mucus production as % of the body weight at the start of the day before the treatment: 0.65%
  Total protein release into PBS: 149 µg/mL
[2]; in vivo
  mucus production (in words): increased mucus production
  protein release (in words): increased protein release

## CCN(CC)CC(=O)Nc1c(C)cccc1C [Lidocaine HCl, lidocaine HCl]
[2]; [4]
  damage (in words): little or no damage
[2]; day 1, 1% w/v in PBS, 15 min
  % MP, mucus production as % of the body weight at the start of the day before the treatment: 0%
[2]; day 2, 1% w/v in PBS, 15 min
  % MP, mucus production as % of the body weight at the start of the day before the treatment: 0%
[2]; day 3, 1% w/v in PBS, 15 min
  % MP, mucus production as % of the body weight at the start of the day before the treatment: 0%
[2]; day 4, 1% w/v in PBS, 15 min
  % MP, mucus production as % of the body weight at the start of the day before the treatment: 0%
[2]; day 5, 1% w/v in PBS, 15 min
  % MP, mucus production as % of the body weight at the start of the day before the treatment: 0%

## CCCCCCCCCC(=O)OC[C@H](COP(=O)([O-])OCC[N+](C)(C)C)OC(=O)CCCCCCCCC [DDPC, didecanyol-L-α-phosphatidylcholine]
[3]; [4]
  membrane damage (in words): little or no damage
[3]; day 1
  % WL, reduction in weight (weight loss) caused by the 15 minute treatment as % of initial body weight of the day: 4.84%
  % MP, mucus production as % of the body weight at the start of the day before the treatment: 0.2%
[3]; day 1, 1% w/v
  ALP released into PBS: 9.43 U/L
  LDH released into PBS: 9.51 U/L
  Protein released into PBS: 12.43 μg/30 μL
[3]; day 2
  % WL, reduction in weight (weight loss) caused by the 15 minute treatment as % of initial body weight of the day: 1.19%
  % MP, mucus production as % of the body weight at the start of the day before the treatment: 0%
[3]; day 2, 1% w/v
  ALP released into PBS: 21.83 U/L
  LDH released into PBS: 14.47 U/L
  Protein released into PBS: 3.77 μg/30 μL
[3]; day 3
  % WL, reduction in weight (weight loss) caused by the 15 minute treatment as % of initial body weight of the day: 1.15%
  % MP, mucus production as % of the body weight at the start of the day before the treatment: 0%
[3]; day 3, 1% w/v
  ALP released into PBS: 13.82 U/L
  LDH released into PBS: 23.36 U/L
  Protein released into PBS: 6.41 μg/30 μL
[3]; day 4
  % WL, reduction in weight (weight loss) caused by the 15 minute treatment as % of initial body weight of the day: 1.39%
  % MP, mucus production as % of the body weight at the start of the day before the treatment: 0%
[3]; day 4, 1% w/v
  ALP released into PBS: 4.55 U/L
  LDH released into PBS: 19.07 U/L
  Protein released into PBS: 4.98 μg/30 μL
[3]; day 5
  % WL, reduction in weight (weight loss) caused by the 15 minute treatment as % of initial body weight of the day: 1.14%
  % MP, mucus production as % of the body weight at the start of the day before the treatment: 0%
[3]; day 5, 1% w/v
  ALP released into PBS: 12.42 U/L
  LDH released into PBS: 28.32 U/L
  Protein released into PBS: 2.40 μg/30 μL

## CCN(CC)CCOC(=O)c1ccc(N)cc1 [Procaine HCl, procaine HCl]
[2]; Arion (slug), in vivo, 1 day
  % MP, mucus production as % of the body weight at the start of the day before the treatment: 0%
  Total protein release into PBS: 204 µg/mL
[2]; Arion (slug), in vivo, 2 day
  % MP, mucus production as % of the body weight at the start of the day before the treatment: 0%
  Total protein release into PBS: 62 µg/mL
[2]; Arion (slug), in vivo, 3 day
  % MP, mucus production as % of the body weight at the start of the day before the treatment: 0%
  Total protein release into PBS: 92 µg/mL
[2]; Arion (slug), in vivo, 4 day
  % MP, mucus production as % of the body weight at the start of the day before the treatment: 0%
  Total protein release into PBS: 54 µg/mL
[2]; Arion (slug), in vivo, 5 day
  % MP, mucus production as % of the body weight at the start of the day before the treatment: 0%
  Total protein release into PBS: 70 µg/mL
[2]; in vivo
  damage (in words): little or no damage

## CCCCN1CCCCC1C(=O)Nc1c(C)cccc1C (stereo not drawn) [Bupivacaine HCl, bupivacaine HCl]
[2]; Arion (slug), in vivo, 1 day
  % MP, mucus production as % of the body weight at the start of the day before the treatment: 7.24%
  Total protein release into PBS: 755 µg/mL
[2]; Arion (slug), in vivo, 2 day
  % MP, mucus production as % of the body weight at the start of the day before the treatment: 5.22%
  Total protein release into PBS: 464 µg/mL
[2]; Arion (slug), in vivo, 3 day
  % MP, mucus production as % of the body weight at the start of the day before the treatment: 2.74%
  Total protein release into PBS: 277 µg/mL
[2]; Arion (slug), in vivo, 4 day
  % MP, mucus production as % of the body weight at the start of the day before the treatment: 1.64%
  Total protein release into PBS: 159 µg/mL
[2]; Arion (slug), in vivo, 5 day
  % MP, mucus production as % of the body weight at the start of the day before the treatment: 1.34%
  Total protein release into PBS: 313 µg/mL
[2]; in vivo
  mucus production (in words): increased mucus production
  protein release (in words): increased protein release

## CCCNC(C)C(=O)Nc1ccccc1C (stereo not drawn) [Prilocaine HCl, prilocaine HCl]
[2]; Arion (slug), in vivo, 1 day
  % MP, mucus production as % of the body weight at the start of the day before the treatment: 0%
  Total protein release into PBS: 139 µg/mL
[2]; Arion (slug), in vivo, 2 day
  % MP, mucus production as % of the body weight at the start of the day before the treatment: 0%
  Total protein release into PBS: 62 µg/mL
[2]; Arion (slug), in vivo, 3 day
  % MP, mucus production as % of the body weight at the start of the day before the treatment: 0%
  Total protein release into PBS: 72 µg/mL
[2]; Arion (slug), in vivo, 4 day
  % MP, mucus production as % of the body weight at the start of the day before the treatment: 0%
  Total protein release into PBS: 65 µg/mL
[2]; Arion (slug), in vivo, 5 day
  % MP, mucus production as % of the body weight at the start of the day before the treatment: 0%
  Total protein release into PBS: 82 µg/mL
